Literature values in patent US20240041828A1, “Combination Therapeutics Comprising Nrf2 Agonists and Antivirals for Treating Viral Infections” (The Regents of the University of California, priority 2022, published 2024).
Where a name gives a salt, the structure may show the parent alone. Read-outs that look alike come from different tables or passages of the source.

System: human mammalian cells
Conditions: cited from earlier work

Row | Structure (SMILES) | concentration shown to be physiologically relevant, efficacious and non-cytotoxic | concentration shown to be physiologically relevant, efficacious and non-cytotoxic (human mammalian cells)
1 | COC(=O)/C=C/C(=O)OC [DMF, Dimethyl fumarate] | 0.1-100 μM | 
2 | COC1=C(OC)C(=O)C(CCCCCCCCCC[P+](c2ccccc2)(c2ccccc2)c2ccccc2)=C(C)C1=O.CS(=O)(=O)[O-] [Mito-MES, 10-(4,5-dimethoxy-2-methyl-3,6-dioxo-1,4-cyclohexadienyl) decyl triphenylphosphonium methanesulfonate] |  | 10-1000 nM
